The source of these data is US10407414B2, “Mannose derivatives for treating bacterial infections” (priority 2015, dated 2019).

For the test, the system named is bacterial strain LF82 binding to the glycoprotein BSA-(Mannose)3 (FimH antagonists). The test is described as follows: Bacterial Binding Assay (BBA). Format: cell-based, Escherichia coli. The conditions noted are these: read-out: Bacterial Binding Assay IC50 ± SEM. An outline of the steps:
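Luciferase-expressing E. coli LF82, grown overnight at 37 °C without shaking, added as 2×10^8 bacteria/mL suspension with compound in BSA/D-PBS binding buffer. Wells were coated with 0.5–2 μg/mL BSA-(Man)3 and BSA-blocked, with 40–75 min binding at room temperature. After washing, adherent bacteria were read by luciferase luminescence and IC50 derived.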
Regarding `Cc1nc(O)ccc1-c1cc(C#C[C@H]2O[C@H](CO)[C@@H](O)[C@H](O)[C@@H]2O)c2[nH]ncc2c1` [Compound 80, (2R,3S,4R,5S,6R)-2-(hydroxymethyl)-6-[2-[5-(6-hydroxy-2-methyl-3-pyridyl)-1H-indazol-7-yl]ethynyl]tetrahydropyran-3,4,5-triol], the IC50 – broadly, the midpoint of a concentration-inhibition curve – amounted to 0.2 ± 0.08 nM.

In the case of `O=C(c1cc(C#C[C@H]2O[C@H](CO)[C@@H](O)[C@H](O)[C@@H]2O)c2[nH]ncc2c1)N1CCOCC1` [Compound 61, morpholino-[7-[2-[(2R,3S,4R,5S,6R)-3,4,5-trihydroxy-6-(hydroxymethyl)tetrahydropyran-2-yl]ethynyl]-1H-indazol-5-yl]methanone], the IC50 is 0.6 ± 0.1 nM.

Regarding `OC[C@H]1O[C@H](C#Cc2cc(C#Cc3ccccc3)cc3cn[nH]c23)[C@@H](O)[C@@H](O)[C@@H]1O` [Compound 45, (2R,3S,4R,5S,6R)-2-(hydroxymethyl)-6-[2-[5-(2-phenylethynyl)-1H-indazol-7-yl]ethynyl]tetrahydropyran-3,4,5-triol], the IC50 was determined as 15 ± 3 nM.

With `CCc1ccccc1-c1cc(C#C[C@H]2O[C@H](CO)[C@@H](O)[C@H](O)[C@@H]2O)c2[nH]ncc2c1` [Compound 87], the IC50 came out at 1 nM.

As to `O=c1ccc(-c2cc(C#C[C@H]3O[C@H](CO)[C@@H](O)[C@H](O)[C@@H]3O)c3[nH]ncc3c2)c[nH]1` [Compound 74, 5-[7-[2-[(2R,3S,4R,5S,6R)-3,4,5-trihydroxy-6-(hydroxymethyl)tetrahydropyran-2-yl]ethynyl]-1H-indazol-5-yl]-1H-pyridin-2-one], the concentration for half-maximal inhibition (IC50) stood at 0.3 ± 0.05 nM.

`NC(=O)c1cccc(-c2cc(C#C[C@H]3O[C@H](CO)[C@@H](O)[C@H](O)[C@@H]3O)c3[nH]ncc3c2)c1` [Compound 31, 3-[7-[2-[(2R,3S,4R,5S,6R)-3,4,5-trihydroxy-6-(hydroxymethyl)tetrahydropyran-2-yl]ethynyl]-1H-indazol-5-yl]benzamide]: the 50% inhibitory concentration (IC50) stood at 0.7 ± 0.01 nM.

As for `Cc1cc(O)ccc1-c1cc(C#C[C@H]2O[C@H](CO)[C@@H](O)[C@H](O)[C@@H]2O)c2[nH]ncc2c1` [Compound 91, (2R,3S,4R,5S,6R)-2-(hydroxymethyl)-6-[2-[5-(4-hydroxy-2-methyl-phenyl)-1H-indazol-7-yl]ethynyl]tetrahydropyran-3,4,5-triol], the IC50 is 0.3 ± 0.03 nM.

Consider `Cc1ccncc1-c1cc(C#C[C@H]2O[C@H](CO)[C@@H](O)[C@H](O)[C@@H]2O)c2[nH]ncc2c1` [Compound 77, (2R,3S,4R,5S,6R)-2-(hydroxymethyl)-6-[2-[5-(4-methyl-3-pyridyl)-1H-indazol-7-yl]ethynyl]tetrahydropyran-3,4,5-triol], for which the IC50 worked out at 0.1 ± 0.02 nM.

On to `Cc1cc(-c2cc(C#C[C@H]3O[C@H](CO)[C@@H](O)[C@H](O)[C@@H]3O)c3[nH]ncc3c2)ccn1` [Compound 84, (2R,3S,4R,5S,6R)-2-(hydroxymethyl)-6-[2-[5-(2-methyl-4-pyridyl)-1H-indazol-7-yl]ethynyl]tetrahydropyran-3,4,5-triol], for which the half-inhibitory concentration (IC50) came out at 0.5 ± 0.2 nM.

`OC[C@H]1O[C@H](C#Cc2cc(-c3ccc4c(c3)OCO4)cc3cn[nH]c23)[C@@H](O)[C@@H](O)[C@@H]1O` [Compound 37, (2R,3S,4R,5S,6R)-2-[2-[5-(1,3-benzodioxol-5-yl)-1H-indazol-7-yl]ethynyl]-6-(hydroxymethyl)tetrahydropyran-3,4,5-triol]: the half-maximal inhibitory concentration (IC50) was 0.7 ± 0.02 nM.

As for `OC[C@H]1O[C@H](C#Cc2cc(Cl)cc3cn[nH]c23)[C@@H](O)[C@@H](O)[C@@H]1O` [Compound 6, (2R,3S,4R,5S,6R)-2-[2-(5-chloro-1H-indazol-7-yl)ethynyl]-6-(hydroxymethyl)tetrahydropyran-3,4,5-triol], the IC50 was found to be 24 ± 5 nM.

As for `CN1CC=C(c2cc(C#C[C@H]3O[C@H](CO)[C@@H](O)[C@H](O)[C@@H]3O)c3[nH]ncc3c2)CC1` [Compound 67, (2R,3S,4R,5S,6R)-2-(hydroxymethyl)-6-[2-[5-(1-methyl-3,6-dihydro-2H-pyridin-4-yl)-1H-indazol-7-yl]ethynyl]tetrahydropyran-3,4,5-triol], the IC50 came out at 2 ± 0.9 nM.

`Cc1cnccc1-c1cc(C#C[C@H]2O[C@H](CO)[C@@H](O)[C@H](O)[C@@H]2O)c2[nH]ncc2c1` [Compound 34, (2R,3S,4R,5S,6R)-2-(hydroxymethyl)-6-[2-[5-(3-methyl-4-pyridyl)-1H-indazol-7-yl]ethynyl]tetrahydropyran-3,4,5-triol]: the IC50 came out at 0.4 ± 0.09 nM.

Turning to `OC[C@H]1O[C@H](C#Cc2cccc3c2NCC3)[C@@H](O)[C@@H](O)[C@@H]1O` [Compound 9, (2R,3S,4R,5S,6R)-2-(hydroxymethyl)-6-(2-indolin-7-ylethynyl)tetrahydropyran-3,4,5-triol], the half-maximal inhibitory concentration (IC50) came out at 725 ± 155 nM.

For the molecule `Cc1ccc(C#N)cc1-c1cc(C#C[C@H]2O[C@H](CO)[C@@H](O)[C@H](O)[C@@H]2O)c2[nH]ncc2c1` [Compound 89, 4-methyl-3-[7-[2-[(2R,3S,4R,5S,6R)-3,4,5-trihydroxy-6-(hydroxymethyl)tetrahydropyran-2-yl]ethynyl]-1H-indazol-5-yl]benzonitrile], the IC50 is 0.5 ± 0.04 nM.

Consider `Cc1ccc(-c2cc(C#C[C@H]3O[C@H](CO)[C@@H](O)[C@H](O)[C@@H]3O)c3[nH]ncc3c2)c(C)c1` [Compound 88, (2R,3S,4R,5S,6R)-2-[2-[5-(2,4-dimethylphenyl)-1H-indazol-7-yl]ethynyl]-6-(hydroxymethyl)tetrahydropyran-3,4,5-triol], for which the IC50 came out at 2 nM.

As to `N#Cc1cc(C#C[C@H]2O[C@H](CO)[C@@H](O)[C@H](O)[C@@H]2O)c2nc[nH]c2c1` [Compound 5, 7-[2-[(2R,3S,4R,5S,6R)-3,4,5-trihydroxy-6-(hydroxymethyl)tetrahydropyran-2-yl]ethynyl]-3H-benzimidazole-5-carbonitrile], the IC50 is 20 ± 2 nM.

As to `OC[C@H]1O[C@H](C#Cc2cc(Br)cc3cn[nH]c23)[C@@H](O)[C@@H](O)[C@@H]1O` [Compound 16, (2R,3S,4R,5S,6R)-2-[2-(5-bromo-1H-indazol-7-yl)ethynyl]-6-(hydroxymethyl)tetrahydropyran-3,4,5-triol], the IC50 worked out at 8 ± 1 nM.

In the case of `CCCN(C)C(=O)c1cc(C#C[C@H]2O[C@H](CO)[C@@H](O)[C@H](O)[C@@H]2O)c2[nH]ncc2c1` [Compound 65, N-methyl-N-propyl-7-[2-[(2R,3S,4R,5S,6R)-3,4,5-trihydroxy-6-(hydroxymethyl)tetrahydropyran-2-yl]ethynyl]-1H-indazole-5-carboxamide], the IC50 was determined as 0.8 ± 0.1 nM.

In the case of `OC[C@H]1O[C@H](C#Cc2cc(C#Cc3cccnc3)cc3cn[nH]c23)[C@@H](O)[C@@H](O)[C@@H]1O` [Compound 46, (2R,3S,4R,5S,6R)-2-(hydroxymethyl)-6-[2-[5-[2-(3-pyridyl)ethynyl]-1H-indazol-7-yl]ethynyl]tetrahydropyran-3,4,5-triol], the half-inhibitory concentration (IC50) was 3 ± 1 nM.

In the case of `OC[C@H]1O[C@H](C#Cc2cc(-c3ccc4cc[nH]c4c3)cc3cn[nH]c23)[C@@H](O)[C@@H](O)[C@@H]1O` [Compound 40, (2R,3S,4R,5S,6R)-2-(hydroxymethyl)-6-[2-[5-(1H-indol-6-yl)-1H-indazol-7-yl]ethynyl]tetrahydropyran-3,4,5-triol], the concentration for half-maximal inhibition (IC50) stood at 1 ± 0.3 nM.

Consider `CCCCc1cc(C#C[C@H]2O[C@H](CO)[C@@H](O)[C@H](O)[C@@H]2O)c2[nH]c(=O)[nH]c2c1` [Compound 15, 6-butyl-4-[2-[(2R,3S,4R,5S,6R)-3,4,5-trihydroxy-6-(hydroxymethyl)tetrahydropyran-2-yl]ethynyl]-1,3-dihydrobenzimidazol-2-one], for which the half-maximal inhibitory concentration (IC50) is 0.7 ± 0.2 nM.

Consider `O=C(NC1CCCCC1)c1cc(C#C[C@H]2O[C@H](CO)[C@@H](O)[C@H](O)[C@@H]2O)c2[nH]ncc2c1` [Compound 63, N-cyclohexyl-7-[2-[(2R,3S,4R,5S,6R)-3,4,5-trihydroxy-6-(hydroxymethyl)tetrahydropyran-2-yl]ethynyl]-1H-indazole-5-carboxamide], for which the half-maximal inhibitory concentration (IC50) was determined as 26 ± 1 nM.

As for `CC(C)CNCC#Cc1cc(C#C[C@H]2O[C@H](CO)[C@@H](O)[C@H](O)[C@@H]2O)c2[nH]ncc2c1` [Compound 52, (2R,3S,4R,5S,6R)-2-(hydroxymethyl)-6-[2-[5-[3-(isobutylamino)prop-1-ynyl]-1H-indazol-7-yl]ethynyl]tetrahydropyran-3,4,5-triol], the concentration for half-maximal inhibition (IC50) stood at 22 ± 10 nM.

On to `CCCCc1cc(C#C[C@H]2O[C@H](CO)[C@@H](O)[C@H](O)[C@@H]2O)c2[nH]cnc2c1` [Compound 20, (2R,3S,4R,5S,6R)-2-[2-(6-butyl-3H-benzimidazol-4-yl)ethynyl]-6-(hydroxymethyl)tetrahydropyran-3,4,5-triol], for which the IC50 was determined as 2 ± 0.2 nM.

As to `O=C1Cc2cccc(C#C[C@H]3O[C@H](CO)[C@@H](O)[C@H](O)[C@@H]3O)c2N1` [Compound 11, 7-[2-[(2R,3S,4R,5S,6R)-3,4,5-trihydroxy-6-(hydroxymethyl)tetrahydropyran-2-yl]ethynyl]indolin-2-one], the IC50 is 190 ± 75 nM.

With `Cc1cc(-c2cc(C#C[C@H]3O[C@H](CO)[C@@H](O)[C@H](O)[C@@H]3O)c3[nH]ncc3c2)cc(C)n1` [Compound 83, (2R,3S,4R,5S,6R)-2-[2-[5-(2,6-dimethyl-4-pyridyl)-1H-indazol-7-yl]ethynyl]-6-(hydroxymethyl)tetrahydropyran-3,4,5-triol], the IC50 is 0.7 ± 0.5 nM.

Take `CS(=O)(=O)c1ccc(-c2cc(C#C[C@H]3O[C@H](CO)[C@@H](O)[C@H](O)[C@@H]3O)c3[nH]ncc3c2)cc1` [Compound 35, (2R,3S,4R,5S,6R)-2-(hydroxymethyl)-6-[2-[5-(4-methylsulfonylphenyl)-1H-indazol-7-yl]ethynyl]tetrahydropyran-3,4,5-triol]: the IC50 turned out to be 0.5 ± 0.1 nM.

For the molecule `Cc1cc(OCc2ccccc2)ncc1-c1cc(C#C[C@H]2O[C@H](CO)[C@@H](O)[C@H](O)[C@@H]2O)c2[nH]ncc2c1` [Compound 55, (2R,3S,4R,5S,6R)-2-[2-[5-(6-benzyloxy-4-methyl-3-pyridyl)-1H-indazol-7-yl]ethynyl]-6-(hydroxymethyl)tetrahydropyran-3,4,5-triol], the half-maximal inhibitory concentration (IC50) worked out at 2 ± 0.05 nM.
